The target of assay [1] is T1, CaCYP51 (Candida albicans, UniProt P10613).
T1 construct: made in house; host or cells: Escherichia coli
Particulars: 1 μM CaCYP51 ref 21; read-out: IC50 CaCYP51 (Ca) (converted); cited from earlier work.

The target in assay [2] is T2, Δ60HsCYP51 (Homo sapiens, UniProt Q16850). The conditions noted are these: cited from earlier work; for IC50: read-out: IC50 Δ60HsCYP51 (Hs), 0.4 μM Δ60HsCYP51 ref 21.
Assay [3] has as its target T2, Δ60HsCYP51. The conditions noted are these: read-out: K d Δ60HsCYP51 (Hs); cited from earlier work.
Assay [4] addresses T2, Δ60HsCYP51. The experiment in a line: CYP51 reconstitution assay (IC50), Δ60HsCYP51. The class given is biochemical. As to the method:
CYP51 reconstitution assays. […] Azoles were introduced using 2.5 μL of stock solutions in DMSO. […] Each IC50 experiment was performed in duplicate.

Assay [5] concerns the target T1, CaCYP51. The experiment in a line: biochemical. The class given is binding. Particulars: 3 μM native CaCYP51, mean of three replicates ± SD; read-out: K d CaCYP51. From the text: […]. There were no signs of compound insolubility (visible or rising background absorbance) during the ligand titrations. […] […].
The rearranged Morrison equation34 gave the best fit to the ligand saturation curves against CaCYP51 (Figure 5) indicating the selected compounds bound tightly to the purified CaCYP51 protein in free solution. Likewise the rearranged Morrison equation34 gave the best fit for binding 5 d and 5 f to Δ60HsCYP51, thus indicating tight binding in free solution (Figure 5). […].
Recombinant CYP51 protein studies. […] All azole ligand binding determinations were performed in triplicate, except the binding of compound 12 c with Δ60HsCYP51 which was performed six times. CYP51 protein samples were diluted with 0.1 M Tris⋅HCl (pH 8.1) and 25 % (w/v) glycerol to the required concentration.
(§1) Dissociation constant (K d). The K d for each CYP51‐azole complex was determined by non‐linear regression (Levenberg‐Marquardt algorithm) using a rearrangement of the Morrison equation for tight ligand binding.34 Where ligand binding was weaker, the Michaelis‐Menten equation was used to fit the data (Figure S5). K d values were determined for each of the three replicate titrations per azole compound and then mean K d values and standard deviations calculated.

In assay [6] the target is T2, Δ60HsCYP51. Nature of the assay: Azole ligand binding titration (type II difference spectra, Kd), Δ60HsCYP51. As to the method:
Recombinant CYP51 protein studies.
as §1

Like-named read-outs stand apart in the source and are kept apart here.

The term IC50 denotes the concentration that gives 50% inhibition.

T1 sequence (P10613 whole entry): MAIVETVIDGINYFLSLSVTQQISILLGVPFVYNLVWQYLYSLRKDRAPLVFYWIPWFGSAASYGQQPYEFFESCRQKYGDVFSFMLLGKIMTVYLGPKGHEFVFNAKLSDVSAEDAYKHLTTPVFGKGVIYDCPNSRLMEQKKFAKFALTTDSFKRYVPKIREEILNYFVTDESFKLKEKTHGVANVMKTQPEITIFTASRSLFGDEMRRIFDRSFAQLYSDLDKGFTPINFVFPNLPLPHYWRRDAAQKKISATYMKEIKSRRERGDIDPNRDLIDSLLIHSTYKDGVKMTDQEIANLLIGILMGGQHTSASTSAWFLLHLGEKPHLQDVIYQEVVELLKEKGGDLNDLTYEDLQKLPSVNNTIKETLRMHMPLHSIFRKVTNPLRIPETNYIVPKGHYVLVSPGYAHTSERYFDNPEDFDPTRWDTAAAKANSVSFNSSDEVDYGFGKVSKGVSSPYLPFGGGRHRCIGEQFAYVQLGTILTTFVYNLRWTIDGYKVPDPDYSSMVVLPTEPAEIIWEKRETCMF
T2 sequence (Q16850 61-509, stated change not applied): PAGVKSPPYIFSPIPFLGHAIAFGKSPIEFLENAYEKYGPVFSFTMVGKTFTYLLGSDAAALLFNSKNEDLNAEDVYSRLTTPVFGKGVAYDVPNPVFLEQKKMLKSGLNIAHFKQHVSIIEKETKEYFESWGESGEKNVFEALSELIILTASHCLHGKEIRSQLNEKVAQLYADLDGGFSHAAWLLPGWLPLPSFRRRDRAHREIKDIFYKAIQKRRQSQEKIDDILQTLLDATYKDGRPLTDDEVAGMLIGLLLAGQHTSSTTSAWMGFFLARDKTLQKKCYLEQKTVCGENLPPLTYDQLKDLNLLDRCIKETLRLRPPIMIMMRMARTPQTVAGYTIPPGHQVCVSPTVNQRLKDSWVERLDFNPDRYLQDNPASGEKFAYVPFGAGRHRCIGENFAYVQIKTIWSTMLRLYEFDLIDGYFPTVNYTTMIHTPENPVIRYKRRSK
T2 sequence (P16435 2-677, stated change not applied, further chain): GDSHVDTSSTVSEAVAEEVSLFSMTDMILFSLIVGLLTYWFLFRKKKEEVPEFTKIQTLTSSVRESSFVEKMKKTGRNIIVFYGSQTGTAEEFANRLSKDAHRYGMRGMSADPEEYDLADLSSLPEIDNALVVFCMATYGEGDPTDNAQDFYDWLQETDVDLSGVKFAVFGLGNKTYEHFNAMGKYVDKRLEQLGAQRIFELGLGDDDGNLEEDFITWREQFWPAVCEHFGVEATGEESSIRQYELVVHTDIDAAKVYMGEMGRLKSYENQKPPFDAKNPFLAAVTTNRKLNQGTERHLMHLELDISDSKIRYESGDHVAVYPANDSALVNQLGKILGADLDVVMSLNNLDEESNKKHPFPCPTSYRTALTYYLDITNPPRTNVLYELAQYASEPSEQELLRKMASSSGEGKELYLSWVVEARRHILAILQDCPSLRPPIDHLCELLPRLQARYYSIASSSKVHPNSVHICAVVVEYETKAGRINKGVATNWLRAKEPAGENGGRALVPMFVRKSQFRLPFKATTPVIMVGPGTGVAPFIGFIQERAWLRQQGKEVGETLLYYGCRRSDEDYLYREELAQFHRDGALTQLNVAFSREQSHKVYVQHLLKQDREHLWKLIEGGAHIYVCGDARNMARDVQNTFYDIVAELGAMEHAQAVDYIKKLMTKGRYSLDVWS

On to `CCC(C)n1ncn(-c2ccc(N3CCN(c4ccc(OCC5COC(Cn6cncn6)(c6ccc(Cl)cc6Cl)O5)cc4)CC3)cc2)c1=O` (stereo not shown) [itraconazole], for which the results for the IC50 at CaCYP51 [1] and on Δ60HsCYP51 [2] were 400 nM and 70 µM, respectively. Besides, the Kd on Δ60HsCYP51 [3] is 92 nM.

Consider `CC(=O)N1CCN(c2ccc(OCC3COC(Cn4ccnc4)(c4ccc(Cl)cc4Cl)O3)cc2)CC1` (stereo not shown) [ketoconazole], for which the IC50 at CaCYP51 [1] was 500 nM; on Δ60HsCYP51 [2] it was 4.5 µM.

On to `O[C@@](Cn1cnnn1)(c1ccc(F)cc1F)C(F)(F)c1ccc(-c2ccc(OCC(F)(F)F)cc2)cn1` [oteseconazole], for which the “Inhibition of Δ60HsCYP51 activity” value at Δ60HsCYP51 [2] (at concentrations up to 50 μM ref 31) is “did not inhibit”.

In turn, `CC[C@@H]([C@H](C)O)n1ncn(-c2ccc(N3CCN(c4ccc(OC[C@@H]5CO[C@@](Cn6cncn6)(c6ccc(F)cc6F)C5)cc4)CC3)cc2)c1=O` [posaconazole, reference compound] showed an IC50 against Δ60HsCYP51 [4] of 123 µM. Also, the Kd at CaCYP51 [5] was determined as 43 ± 11 nM; on Δ60HsCYP51 [6] it was 204 ± 63 nM.

On Δ60HsCYP51 [4], `C[C@@H](c1ncncc1F)[C@](O)(Cn1cncn1)c1ccc(F)cc1F` [voriconazole, reference compound] gave a concentration for half-maximal inhibition (IC50) of 78 µM.

The values are drawn from article PMC7496091, “Small‐Molecule Inhibitors Targeting Sterol 14α‐Demethylase (CYP51): Synthesis, Molecular Modelling and Evaluation Against Candida albicans” (Chemmedchem, 2020).
